Assay results from PubChem BioAssay (NCI).
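Protocol summary: plate cells (96-well), add compound at 5 concentrations, incubate 48 h, interpolate endpoints linearly. TGI denotes the concentration required for complete inhibition of growth.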

Tests used:
Test in all cases: NCI-60 cell line screen, 48 h
COLO 205 colon = tested on: COLO 205 colon
SK-MEL-28 melanoma = tested on: SK-MEL-28 melanoma
HOP-62 NSCLC = tested on: HOP-62 NSCLC
M14 melanoma = tested on: M14 melanoma
IGROV1 ovarian = tested on: IGROV1 ovarian
786-0 renal = tested on: 786-0 renal
NCI/ADR-RES ovarian = tested on: NCI/ADR-RES ovarian
MDA-MB-231 breast = tested on: MDA-MB-231 breast
CCRF-CEM leukemia = tested on: CCRF-CEM leukemia
MCF7 breast = tested on: MCF7 breast
CAKI-1 renal = tested on: CAKI-1 renal
A498 renal = tested on: A498 renal
HCT-15 colon = tested on: HCT-15 colon
EKVX NSCLC = tested on: EKVX NSCLC
OVCAR-5 ovarian = tested on: OVCAR-5 ovarian
NCI-H460 lung = tested on: NCI-H460 lung
SK-MEL-2 melanoma = tested on: SK-MEL-2 melanoma

SMILES	TGI (COLO 205 colon)	TGI (SK-MEL-28 melanoma)	TGI (HOP-62 NSCLC)	TGI (M14 melanoma)	TGI (IGROV1 ovarian)	TGI (786-0 renal)	TGI (NCI/ADR-RES ovarian)	TGI (MDA-MB-231 breast)	TGI (CCRF-CEM leukemia)	TGI (MCF7 breast)	TGI (CAKI-1 renal)	TGI (A498 renal)	TGI (HCT-15 colon)	TGI (EKVX NSCLC)	TGI (OVCAR-5 ovarian)	TGI (NCI-H460 lung)	TGI (SK-MEL-2 melanoma)
COc1cc(C(CN)N(C)C)cc(OC)c1OC (centres undefined)	> 100 µM	> 100 µM	> 100 µM	> 100 µM	> 100 µM	> 100 µM	> 100 µM	> 100 µM	> 100 µM	> 100 µM	> 100 µM	> 100 µM	> 100 µM	> 100 µM	> 100 µM	> 100 µM	
C[n+]1ccccc1/C=C/c1ccc2c(c1)OCO2	> 10 µM	> 10 µM	> 10 µM	> 10 µM	> 10 µM	> 10 µM	> 10 µM	> 10 µM	> 10 µM	> 10 µM	> 10 µM	> 10 µM	> 10 µM	> 10 µM	> 10 µM	> 10 µM	> 10 µM
COc1ccc(CCNC(=O)Cc2ccccc2CCO)cc1OC	> 100 µM	> 100 µM	> 100 µM	> 100 µM	> 100 µM	> 100 µM	> 100 µM	> 100 µM	> 100 µM	> 100 µM	> 100 µM	> 100 µM	> 100 µM	> 100 µM	> 100 µM	> 100 µM	> 100 µM
COc1ccc(-c2c(N)n(-c3cc(OC)cc(OC)c3)c(=O)c3cc([N+](=O)[O-])ccc23)cc1	> 100 µM	> 100 µM	> 100 µM	> 100 µM	> 100 µM	> 100 µM	> 100 µM	> 100 µM	> 100 µM	> 100 µM	> 31.6 µM	98.5 µM	> 100 µM	> 100 µM	> 100 µM	> 100 µM	> 100 µM
COC(=O)c1c(C)cccc1C1CN=NC12Cc1c(C)cccc1C2=O (centres undefined)	> 100 µM	> 100 µM	> 100 µM	> 100 µM	> 100 µM	> 100 µM	> 100 µM	> 100 µM	> 100 µM	> 100 µM	> 100 µM	> 100 µM	> 100 µM	79.7 µM	> 100 µM	> 100 µM	> 100 µM
COc1cccc(N2CCc3c(C)c(C#N)c4nc5ccccc5n4c32)c1	> 100 µM	> 100 µM	> 100 µM	> 100 µM	> 100 µM	> 100 µM	> 100 µM	> 100 µM	> 100 µM	> 100 µM		> 100 µM	> 100 µM		> 100 µM	> 100 µM	> 100 µM
CNNC1=NS(=O)(=O)c2cc(C(=O)OC)c(Cl)cc2S1	> 10 µM	> 10 µM	> 10 µM	> 10 µM	> 10 µM	> 10 µM	> 10 µM	> 10 µM	> 10 µM	> 10 µM	> 10 µM	> 10 µM	> 10 µM	> 10 µM	> 10 µM	> 10 µM	> 10 µM
COc1ccc(-n2c(C)nc3ccc(N=Cc4ccccc4)cc3c2=O)cc1	> 100 µM	> 100 µM	> 100 µM		> 100 µM	> 100 µM	> 100 µM	> 100 µM		> 100 µM	> 100 µM	> 100 µM	> 100 µM	> 100 µM	> 100 µM	> 100 µM	
COC(=O)c1ccc(NCc2cc(O)c3ccccc3c2O)cc1	25.4 µM	18.3 µM	32.5 µM		25.5 µM	46.5 µM	94.3 µM	6.02 µM	16.3 µM	21.3 µM	13.4 µM	36.7 µM	28.8 µM	48.7 µM	50.9 µM	24.5 µM	43.2 µM
S=C(NNC1=NCCCCN1)Nc1ccccc1	> 100 µM	> 100 µM	> 100 µM	> 100 µM	> 100 µM	> 100 µM	> 100 µM	> 100 µM	> 100 µM	> 100 µM	> 100 µM	> 100 µM	> 100 µM	> 100 µM	> 100 µM	> 100 µM	
O=C1C=CC(=O)c2c(O)c(Nc3ccc(OC(F)(F)F)cc3)c(Cl)c(O)c21	2.84 µM	1.97 µM	2.57 µM	1.22 µM		1.26 µM	4.57 µM	1.41 µM	4.32 µM	1.8 µM	2.96 µM	9.36 µM	1.44 µM	2.17 µM	3.16 µM	3.6 µM	3.48 µM
Cn1c2nc(=Nc3ccc(Cl)cc3)n3ccc4ccccc4c3c2c(=O)n1-c1ccccc1	> 100 µM	> 100 µM	> 100 µM		> 100 µM	> 100 µM	> 100 µM	> 100 µM		> 100 µM	> 100 µM	> 100 µM	> 100 µM	> 100 µM	> 100 µM	> 100 µM	> 100 µM
O=C(C1=CCC2(CC1)OCCO2)N(Cc1ccccc1)c1ccccc1I	36.5 µM	46.2 µM	43.3 µM	33.5 µM		43 µM	32.8 µM	68.1 µM		72.4 µM	88.3 µM	51.9 µM	57.2 µM	31.5 µM	36.7 µM	46.4 µM	38.7 µM
COc1ccc(OC)c2c1C(=O)C(Cl)=C(Cl)C2=O	3.21 µM	12.8 µM		6.46 µM	31.1 µM	10.5 µM	5.74 µM	6.57 µM	> 100 µM	10.4 µM	7.99 µM	41.6 µM	10.7 µM	21.9 µM	29.6 µM	44.3 µM	8.73 µM
